US20220395472A1 (Dermavant Sciences GmbH, priority 2021, published 2022)

Columns and labels:
[1] = test system: adults with plaque psoriasis; assay: Long-term extension study (PSOARING 3): % BSA affected; type: in vivo, human; details: Week 40 OC; Vehicle (Pivotal)
Method: The % BSA affected is an estimate of the percentage of total involved skin with psoriasis. For the purpose of clinical estimation, the total palmar surface of the subject's palm and digits was assumed to be approximately equivalent to 1% BSA. The % BSA affected by psoriasis was evaluated (from 0% to 100%). Details on calculation of approximate % BSA involvement in each subject (total and individual) can be found in Appendix 2 of the protocol. Percent BSA is a static assessment made without reference to previous scores.
At Screening, Baseline, and for all efficacy assessments, lesions on the subject's scalp, palms, fingernails, toenails, and soles were not included in the calculation of % BSA affected as these areas were excluded from the efficacy analyses.

[2] = test system: adults with plaque psoriasis; assay: Long-term extension study (PSOARING 3): PASI score, PASI75, PASI90; type: in vivo, human
Description: The PASI scoring system is a widely used, standard, clinical tool for assessing the severity of psoriasis that takes into account the overall severity of erythema (redness), induration (plaque thickness), scale, and the extent of % BSA affected with psoriasis. The 3 clinical signs are each graded on a 5 point scale (0 to 4) and the % BSA affected is scored on a 7 point scale (0 to 6) for each of the 4 specified body regions (head, upper extremities, trunk, and lower extremities). Individual scores are multiplied by a weighted factor for each body region; the sum of these scores gives the overall PASI score. Higher scores indicate more severe disease. PASI is a static assessment made without reference to previous scores. Details on PASI calculation can be found in Appendix 2 of the protocol.

[3] = Week 16 LOCF, Tapinarof (Pivotal)
[4] = Week 16 LOCF, Vehicle (Pivotal)
[5] = Week 16 OC, Tapinarof (Pivotal)
[6] = Week 40 LOCF, Tapinarof (Pivotal)
[7] = Week 40 LOCF, Vehicle (Pivotal)
[8] = Week 40 OC, Tapinarof (Pivotal)

CC(C)c1c(O)cc(/C=C/c2ccccc2)cc1O [Tapinarof Cream 1%]
% BSA affected, Percent CFBL, Median [1]: −86.06%
PASI, Observed, Mean ([2]; Baseline, Overall): 4.76
PASI, Observed, Median ([2]; Baseline, Overall): 3.40
PASI, Observed, Mean ([2]; Baseline, Tapinarof (Pivotal)): 3.28
PASI, Observed, Median ([2]; Baseline, Tapinarof (Pivotal)): 2.30
PASI, CFBL, Mean ([2]; Week 16 LOCF, Overall): −1.80
PASI, CFBL, Median ([2]; Week 16 LOCF, Overall): −0.90
PASI, Observed, Mean ([2]; Week 16 LOCF, Overall): 2.99
PASI, Observed, Median ([2]; Week 16 LOCF, Overall): 1.80
PASI, Percent CFBL, Mean ([2]; Week 16 LOCF, Overall): −20.93%
PASI, Percent CFBL, Median ([2]; Week 16 LOCF, Overall): −40.91%
PASI, CFBL, Mean [2, 3]: −0.54
PASI, CFBL, Median [2, 3]: −0.20
PASI, Observed, Mean [2, 3]: 2.74
PASI, Observed, Median [2, 3]: 1.80
PASI, Percent CFBL, Mean [2, 3]: −3.20%
PASI, Percent CFBL, Median [2, 3]: −25.00%
PASI, CFBL, Mean [2, 4]: −4.24
PASI, CFBL, Median [2, 4]: −3.80
PASI, Observed, Mean [2, 4]: 3.47
PASI, Observed, Median [2, 4]: 2.40
PASI, Percent CFBL, Mean [2, 4]: −51.02%
PASI, Percent CFBL, Median [2, 4]: −59.38%
PASI, CFBL, Mean ([2]; Week 16 OC, Overall): −1.99
PASI, CFBL, Median ([2]; Week 16 OC, Overall): −1.00
PASI, Observed, Mean ([2]; Week 16 OC, Overall): 2.57
PASI, Observed, Median ([2]; Week 16 OC, Overall): 1.80
PASI, Percent CFBL, Mean ([2]; Week 16 OC, Overall): −25.35%
PASI, Percent CFBL, Median ([2]; Week 16 OC, Overall): −44.72%
PASI, CFBL, Mean [2, 5]: −0.67
PASI, CFBL, Median [2, 5]: −0.40
PASI, Observed, Mean [2, 5]: 2.38
PASI, Observed, Median [2, 5]: 1.60
PASI, Percent CFBL, Mean [2, 5]: −7.79%
PASI, Percent CFBL, Median [2, 5]: −30.00%
PASI, CFBL, Mean ([2]; Week 16 OC, Vehicle (Pivotal)): −4.59
PASI, CFBL, Median ([2]; Week 16 OC, Vehicle (Pivotal)): −3.80
PASI, Observed, Mean ([2]; Week 16 OC, Vehicle (Pivotal)): 2.95
PASI, Observed, Median ([2]; Week 16 OC, Vehicle (Pivotal)): 2.10
PASI, Percent CFBL, Mean ([2]; Week 16 OC, Vehicle (Pivotal)): −55.09%
PASI, Percent CFBL, Median ([2]; Week 16 OC, Vehicle (Pivotal)): −64.02%
PASI, CFBL, Median ([2]; Week 40 LOCF, Overall): −0.90
PASI, Observed, Mean ([2]; Week 40 LOCF, Overall): 2.97
PASI, Observed, Median ([2]; Week 40 LOCF, Overall): 1.80
PASI, Percent CFBL, Mean ([2]; Week 40 LOCF, Overall): −10.45%
PASI, Percent CFBL, Median ([2]; Week 40 LOCF, Overall): −44.44%
PASI, CFBL, Mean [2, 6]: −0.48
PASI, CFBL, Median [2, 6]: −0.20
PASI, Observed, Mean [2, 6]: 2.80
PASI, Observed, Median [2, 6]: 1.80
PASI, Percent CFBL, Mean [2, 6]: 11.96%
PASI, Percent CFBL, Median [2, 6]: −27.27%
PASI, CFBL, Mean [2, 7]: −4.42
PASI, CFBL, Median [2, 7]: −3.90
PASI, Observed, Mean [2, 7]: 3.28
PASI, Observed, Median [2, 7]: 2.00
PASI, Percent CFBL, Mean [2, 7]: −48.42%
PASI, Percent CFBL, Median [2, 7]: −68.66%
PASI, CFBL, Mean ([2]; Week 40 OC, Overall): −2.14
PASI, CFBL, Median ([2]; Week 40 OC, Overall): −1.20
PASI, Observed, Mean ([2]; Week 40 OC, Overall): 2.36
PASI, Observed, Median ([2]; Week 40 OC, Overall): 1.60
PASI, Percent CFBL, Mean ([2]; Week 40 OC, Overall): −16.18%
PASI, Percent CFBL, Median ([2]; Week 40 OC, Overall): −56.70%
PASI, CFBL, Mean [2, 8]: −0.51
PASI, CFBL, Median [2, 8]: −0.30
PASI, Observed, Mean [2, 8]: 2.38
PASI, Observed, Median [2, 8]: 1.60
PASI, Percent CFBL, Mean [2, 8]: 8.49%
PASI, Percent CFBL, Median [2, 8]: −35.24%
PASI, CFBL, Mean ([2]; Week 40 OC, Vehicle (Pivotal)): −5.53
PASI, CFBL, Median ([2]; Week 40 OC, Vehicle (Pivotal)): −4.80
PASI, Observed, Mean ([2]; Week 40 OC, Vehicle (Pivotal)): 2.31
PASI, Observed, Median ([2]; Week 40 OC, Vehicle (Pivotal)): 1.40
PASI, Percent CFBL, Mean ([2]; Week 40 OC, Vehicle (Pivotal)): −60.12%
PASI, Percent CFBL, Median ([2]; Week 40 OC, Vehicle (Pivotal)): −76.39%
